From PMC10945480 (Journal of Medicinal Chemistry, 2024)
Read-outs that look alike come from different tables or passages of the source.

Tests used:
PDI = test system: PDI; parameters: method as in PMID 22565308, PMID 22988091, PMID 27197150, PMID 24070012, PMID 24624466; conditions: reported PDI inhibitors, Figure 1b; read-out: PDI IC50 measured by the insulin-aggregation assay; cited from earlier work
washed human platelets [1] = experiment: U46619-induced platelet aggregation; format: cell-based; conditions: Platelet; washed human platelets, U46619 (1 μM)
Procedure: (§1) The antiplatelet effects of the JUG derivatives were evaluated by measuring human platelet aggregation, which can be regulated by cell surface PDI. Platelet aggregation was induced with platelet activators U46619 (a mimetic of thromboxane A2) and collagen (binding to GPVI).
(§2) Washed human platelets were prepared from acid citrate dextrose-anticoagulated blood of healthy human volunteers as described previously.[73] The study was approved by the Institutional Review Board of Kaohsiung Medical University, and informed consent was obtained from every volunteer. Platelet aggregation was measured by using a turbidimetric aggregometer (Chrono-Log Co., USA) under stirring conditions (1200 rpm) at 37 °C. The extent of platelet aggregation was measured as the maximal increase of light transmission after the addition of the stimulators U46619 and collagen.[73] In the TCIPA assay, platelet aggregation was induced by A549 (1 × 10^4 cells/mL), MDA-MB-231 (1 × 10^2 cells/mL), or RPMI8226 (1 × 10^5 cells/mL) cancer cells in the presence of 0.375% plasma.[74]

[2] = test system: washed human platelets coincubated with A549 cancer cells; experiment: Tumor cell-induced platelet secretion (PDGF, ATP); format: cell-based
Procedure: (§3) (a) Washed human platelets were coincubated with A549 cancer cells under the same conditions as described in Figure 4. Secretion of PDGF and ATP were determined with the enzyme-linked immunosorbent assay (ELISA) and bioluminescent assay, respectively. (b) A549 cancer cells were coincubated with washed human platelets at 37 °C and 5% CO2 in a cell culture incubator for 48 h. After washing with PBS, the numbers of viable cancer cells were determined by trypan blue exclusion. Data are mean ± SEM of at least three independent experiments.
Washed human platelets were coincubated with cancer cells under the same conditions as described in the TCIPA assay. After a 25 min incubation in the aggregometer, the samples were centrifuged at 13,000g for 1 min. The concentrations of PDGF-BB and ATP in the supernatants were determined using an ELISA kit (Abcam, Cambridge, UK) and an ATP bioluminescent assay kit (Sigma, MO, USA), respectively.[52]

platelet surface PDI = platelet surface PDI (Homo sapiens, UniProt P07237); experiment: Cell surface PDI reductase activity on intact human platelets (Di-E-GSSG assay); conditions: read-out: Surface PDI IC50; intact human platelets, Di-E-GSSG, 5 μM DTT
Sequence of platelet surface PDI (P07237 18-508): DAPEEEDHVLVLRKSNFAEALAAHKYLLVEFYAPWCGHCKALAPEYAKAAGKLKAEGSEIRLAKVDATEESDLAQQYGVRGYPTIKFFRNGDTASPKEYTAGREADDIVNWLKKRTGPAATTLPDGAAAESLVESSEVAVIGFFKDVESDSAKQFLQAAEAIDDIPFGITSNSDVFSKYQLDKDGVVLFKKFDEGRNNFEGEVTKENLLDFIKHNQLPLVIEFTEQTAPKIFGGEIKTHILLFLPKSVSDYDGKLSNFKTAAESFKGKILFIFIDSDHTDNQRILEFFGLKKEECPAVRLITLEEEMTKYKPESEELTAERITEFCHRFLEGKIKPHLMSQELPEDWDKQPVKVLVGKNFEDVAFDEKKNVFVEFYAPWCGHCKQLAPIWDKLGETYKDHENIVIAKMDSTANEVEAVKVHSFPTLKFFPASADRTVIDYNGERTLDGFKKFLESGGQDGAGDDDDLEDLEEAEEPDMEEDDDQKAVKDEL
Procedure: (§5) In this assay, a nonfluorescent substrate, dieosin glutathione disulfide (Di-E-GSSG), was reduced into a fluorescent product eosin-glutathione (E-GSH) by platelet surface PDI in the presence of 5 μM dithiothreitol (DTT).

[3] = test system: washed human platelets coincubated with A549, MDA-MB-231, or RPMI8226 cancer cells; experiment: Tumor cell-induced platelet aggregation (TCIPA); format: cell-based; conditions: 2 μM; A549, MDA-MB-231, RPMI8226 cells, in the presence of plasma
lung cancer A549 = experiment: Cell viability, resazurin assay, A549; conditions: Homo sapiens, A549, 24 h, read-out: A549 IC50
Procedure: (§6) Cells were maintained in a humidified incubator at 37 °C in 5% CO2, and cell viability was determined with the resazurin assay (Cayman Chemical, USA) after the incubation with compounds for indicated concentrations and times or DMSO as control.[72]

breast cancer MDA-MB-231 = experiment: Cell viability, resazurin assay, MDA-MB-231; conditions: Homo sapiens, MDA-MB-231, 24 h, read-out: MDA-MB-231 IC50
Procedure: as §6

[4] = molecular target: purified human recombinant PDI (rPDI) (Homo sapiens, UniProt P07237); experiment: Recombinant PDI reductase activity (Di-E-GSSG assay); conditions: human recombinant PDI, Di-E-GSSG
Sequence of purified human recombinant PDI (rPDI) (P07237 18-508): as above
Procedure: as §5

A549 cancer cells = experiment: Platelet-enhanced tumor cell proliferation; format: cell-based, human; conditions: A549 plus platelets, 48 h, 0.5 to 2 μM
Procedure: In order to examine platelet-enhanced cancer cell growth, A549 cancer cells were coincubated with platelets for 48 h.
as §3, with “Figure 5 Inhibitory effects of JUG derivatives 18 and 22 on tumor cell-induced platelet secretion and platelet-enhanced tumor cell proliferation. (a)” for “(a)”, “experiments. In (a), *P < 0.05; **P < 0.01; ***P < 0.001 as compared with vehicle control (DMSO). In (b), *P < 0.05; **P < 0.01; ***P < 0.001 as compared with A549 cells plus platelets.” for “experiments.”
A549 cells (1 × 10^4 cells/well) were seeded in a 96-well plate and coincubated with wash human platelets (1 × 10^7 cells/well) containing with 0.375% plasma for 48 h at 37 °C and 5% CO2 in a cell culture incubator. After washing with phosphate buffered saline, the numbers of viable cancer cells were determined by trypan blue exclusion.

washed human platelets [5] = experiment: Collagen-induced platelet aggregation; format: cell-based; conditions: Platelet; washed human platelets, collagen (5 μg/mL)
Procedure: as §1, §2

[6] = test system: multiple myeloma RPMI8226; experiment: Cell viability, resazurin assay, RPMI8226; conditions: for S.I. (EAhy926/RPMI8226), selectivity index: 24 h IC50 ratio; for IC50: Homo sapiens
Procedure: as §6

[7] = test system: human vascular endothelial EA.hy926 cells; experiment: Cell viability, resazurin assay, EA.hy926; conditions: EA.hy 926, 24 h, read-out: EAhy926 IC50
Procedure: as §6

glioma U87 = experiment: Cell viability, resazurin assay, U87; conditions: Homo sapiens, 24 h, read-out: U87 IC50
Procedure: as §6

[8] = Parallel artificial membrane permeability assay (PAMPA); conditions: 50 μM, 25 ℃, 3 h, verapamil = 100%, ranitidine = 0%
Procedure: 1. Parallel artificial membrane permeability assay (PAMPA). […]
evolution instruments from pION Inc. In the PAMPA assay, a set of sandwich plates consists of a 96-well microtiter donor plate at the bottom and a 96-well filter acceptor plate on the top from […]
The stock solutions of samples were prepared at 10 mM concentrations in DMSO and stored at 0 ℃ before use. Before being added to a 96-well filter plate, the stock solution was diluted first with buffer to achieve a final sample concentration of 50 μM and to reduce the DMSO concentration below 1% (v/v). Each well of the 96-well donor plate was filled with a 200 μL diluted sample solution (50 μM), and the 96-well filter acceptor plate was then wetted with a 5 μL 2% w/v dioleyoylphosphatidylcholine (DOPC) in n-dodecane and subsequently placed on the donor wells.
Immediately, the acceptor wells were filled with 200 μL of buffer solution and the PAMPA plate sandwich was sealed and incubated at 25 ℃ for 3 h. After reaching the permeation time, the PAMPA plate sandwich was separated and transferred to 96-well UV plates respectively. The amounts of drugs in both the donor and acceptor compartments were measured by comparing the experimental spectra with the UV spectrum (220∼400 nm) obtained from reference standards.

ERp57 (PDIA3) = molecular target: T1, ERp57 (PDIA3) (Homo sapiens, UniProt P30101); experiment: ERp57 reductase assay (Di-E-GSSG); format: biochemical; conditions: ERp57 and ERp72 together, fold higher than required to inhibit PDI
T1 sequence (P30101 25-505): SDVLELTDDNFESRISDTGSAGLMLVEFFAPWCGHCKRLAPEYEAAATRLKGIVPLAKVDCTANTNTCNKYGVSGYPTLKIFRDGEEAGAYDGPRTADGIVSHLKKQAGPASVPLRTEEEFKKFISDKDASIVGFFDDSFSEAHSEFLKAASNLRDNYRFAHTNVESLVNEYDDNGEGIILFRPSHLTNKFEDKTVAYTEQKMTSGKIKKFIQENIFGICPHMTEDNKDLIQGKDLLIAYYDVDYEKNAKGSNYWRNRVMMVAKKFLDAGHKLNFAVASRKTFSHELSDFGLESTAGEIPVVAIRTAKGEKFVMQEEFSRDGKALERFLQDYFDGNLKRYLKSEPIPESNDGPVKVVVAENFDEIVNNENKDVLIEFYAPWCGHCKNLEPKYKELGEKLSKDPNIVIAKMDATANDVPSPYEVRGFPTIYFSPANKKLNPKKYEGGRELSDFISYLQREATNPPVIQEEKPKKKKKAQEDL
Source text: In addition to PDI, ERp57 (PDIA3) and ERp72 (PDIA4) are two other major members of the PDI family in both platelets and A549 cells.[62],[63]

Human rPDI = Human rPDI (Homo sapiens, UniProt P07237); experiment: Effect of GSH on rPDI inhibition (Di-E-GSSG assay); format: biochemical; conditions: 10 μM compound, 1 mM GSH vs 5 μM DTT
Sequence of Human rPDI (P07237 18-508): as the sequence (P07237 18-508) above
Procedure: (§4) GSH is the major cellular nonprotein thiol, which exists within cells at millimolar concentrations (1–8 mM) while is present extracellularly at only a few micromolar.[53] The high concentrations of intracellular GSH thus may compete with the binding of PDI to covalent PDI inhibitors.[54] […] In this assay, the noncovalent PDI inhibitor isoquercetin was used as a negative control.
Data are mean ± SEM of three independent experiments.

[9] = UPLC-MS analysis of compound metabolites in water with or without GSH; format: physicochemical; conditions: 37 °C, 30 min
Procedure: as §4
Compounds (400 μM) were incubated in water (250 μL) with or without GSH (4 mM) at 37 °C for 30 min. The compound mixture was diluted with methanol (250 μL) and used for UPLC-MS analysis Metabolite analysis was performed on an ACQUITY UPLC I-Class/SQ Detector 2 (Waters, Milford, USA). The reverse phase BEH C18 column (100 mm × 2.1 mm, 1.7 μm, Waters) and VanGuard BEH C18 guard column (5 mm × 2.1 mm, 1.7 μm, Waters) were used. All data were acquired by Empower 3. The mobile phase for LC separation was Millipore water (A) and acetonitrile (B), and the program was as follows: 0.00 min 90% A → 0.50 min 90% A → 6.50 min 5% A → 8.50 min 5% A → 8.60 min 90% A → 9.00 min 90% A; at a rate of 0.4 mL/min for 9.00 min with 5 μL per injection. The temperature of the column oven was maintained at 40 °C. Mass spectrometer parameters were set as follows: cone voltage, 40.0 V, for positive/negative ion mode; desolvation temperature, 200 °C; cone gas flow(N2), 1 L/h; and desolvation gas flow (N2), 650 L/h.

[10] = RPMI-8226, 24 h, read-out: RPMI8226 IC50

Which IC50 (PDI) does the source give for N#Cc1cccc(/C=C/C(=O)c2ccc(O)cc2)c1 [BAP-2] here?
Its IC50 is 0.93 µM.

For CC(=O)OC[C@H]1O[C@H](OC2=CC(=O)c3cccc(O)c3C2=O)[C@H](OC(C)=O)[C@@H](OC(C)=O)[C@@H]1OC(C)=O [Compound 22, 2-(2,3,4,6-Tetra-α-O-acetylglucopyranosyl)-8-hydroxynaphthalene-1,4-dione], which IC50 (washed human platelets [1]) is on record?
Its IC50 is 1.54 ± 0.02 µM.

And the “tumor cell-induced increase in extracellular PDGF and ATP (platelet secretion)” value [2]?
The value was “reduced”.

And the IC50 (platelet surface PDI)?
The IC50 was 0.62 ± 0.06 µM.

What about the “prevention of TCIPA” value [3] of the same molecule?
Its value is “significantly prevented TCIPA”.

And the IC50 (lung cancer A549)?
Its IC50 is 8.95 ± 0.23 µM.

What about the IC50 (breast cancer MDA-MB-231) of the same molecule?
The IC50 was 4.42 ± 0.98 µM.

What about the IC50 ([4]; read-out: PDI IC50, Table 4) of the same molecule?
Its IC50 is 0.63 ± 0.12 µM.

What about the IC50 ([4]; read-out: rPDI IC50, 5 μM DTT) of the same molecule?
Its IC50 is 0.63 ± 0.12 µM.

And the “platelet-enhanced cancer cell growth” value (A549 cancer cells)?
The value was “to a lesser extent”.

And the IC50 (washed human platelets [5])?
The IC50 was 0.5 ± 0.08 µM.

And the “S.I. (EAhy926/RPMI8226), selectivity index” value [6]?
Its value is 8.2.

What about the IC50 [6, 10] of the same molecule?
Its IC50 is 0.66 ± 0.08 µM.

And the IC50 ([6]; RPMI-8226, 72 h, read-out: RPMI8226 IC50, 72 h)?
The IC50 was 0.048 µM.

And the IC50 [7]?
Its IC50 is 5.42 ± 0.05 µM.

What about the IC50 (glioma U87) of the same molecule?
Its IC50 is 3.22 ± 0.37 µM.

What about the “Permeability (%)” value [8] of the same molecule?
Its value is 57.45%.

And the “concentrations inhibiting ERp57 and ERp72 relative to PDI” value (ERp57 (PDIA3))?
The value was 4 to 7 fold.

Which results are given for CC(=O)OC[C@H]1O[C@@H](SC2=C(c3ccc(O)cc3O)C(=O)c3c(O)cccc3C2=O)[C@H](OC(C)=O)[C@@H](OC(C)=O)[C@@H]1OC(C)=O [Compound 31, 2-(2,4-Dihydroxyphenyl)-3-(2,3,4,6-tetra-O-acetyl-1-thio-β-D-glucopyranose)-8-hydroxynaphthalene-1,4-dione]?
PDI-inhibitory activity in the presence of GSH (Human rPDI): largely reduced by GSH; IC50 (washed human platelets [1]): 3.54 ± 0.11 µM; stability in aqueous conditions (UPLC-MS) ([9]; 400 μM in water): easily hydrolyzed in aqueous condition; GSH adduct formation after GSH treatment (UPLC-MS) ([9]; 400 μM, GSH 4 mM): significant amount of GSH addition product; IC50 (platelet surface PDI): 0.46 ± 0.07 µM; IC50 (lung cancer A549): 12.6 ± 1.51 µM; IC50 (breast cancer MDA-MB-231): 11.3 ± 1.09 µM; IC50 ([4]; read-out: rPDI IC50, 5 μM DTT): 0.67 ± 0.09 µM; IC50 (washed human platelets [5]): 6.65 ± 1.74 µM; S.I. (EAhy926/RPMI8226), selectivity index [6]: 2.2; IC50 [6, 10]: 3.07 ± 0.29 µM; IC50 [7]: 6.87 ± 0.21 µM; IC50 (glioma U87): 7.39 ± 0.22 µM; Permeability (%) [8]: 28.86%

What does the source list for O=C1C=CC(=O)c2c(O)cccc21 [JUG (7), 5-hydroxy-1,4-naphthoquinone, reference compound]?
PDI-inhibitory activity in the presence of GSH (Human rPDI): completely lost PDI-inhibitory activity; IC50 (washed human platelets [1]): 4.45 ± 0.47 µM; IC50 (platelet surface PDI): 0.63 ± 0.07 µM; IC50 (lung cancer A549): 11.9 ± 0.6 µM; IC50 (breast cancer MDA-MB-231): 6.15 ± 0.78 µM; IC50 ([4]; read-out: PDI IC50, Table 4): 1.1 ± 0.17 µM; IC50 ([4]; read-out: rPDI IC50, 5 μM DTT): 1.1 ± 0.17 µM; IC50 (washed human platelets [5]): 1.18 ± 0.14 µM; IC50 [6, 10]: 3.95 ± 0.7 µM; IC50 [7]: 5.57 ± 0.02 µM; IC50 (glioma U87): 7.45 ± 0.33 µM; Permeability (%) [8]: 83.43%

Which IC50 (PDI) does the source give for CCOC(=O)C1(CCOc2ccccc2)CCN(Cc2ccc(O)c(Cl)c2)CC1 [ML359] here?
The IC50 was 0.25 µM.
